# “And” between values parts separate entries of the source, which are not always exact repeats. Equal values may be shown once. Read-outs that look alike come from different tables or passages of the source.
# Experiments:
# [1] = test system: CT26 colon carcinoma tumor; assay: Example 4: anti-tumor responses of SYN-115 in the CT26 tumor mouse model (tumor area, survival); format: in vivo, BALB/c mice; design: key: tumor area, width*length, in mm^2
# Method: The BALB/c mouse colon carcinoma cell line CT26 was cultured in RPMI supplemented with 10% FCS, GlutaMAX, and penicillin/streptomycin. Tumor cells are periodically verified to be Mycoplasma negative by the Victorian Infectious Diseases References Lab (Melbourne, VIC, Australia) by PCR analysis. 1×10^5 cells were resuspended in PBS and injected s.c. into BALB/c mice in a 100 μL volume. At day 9, tumors were measured and mice were randomized into distinct treatment groups to ensure that each group had tumors of similar size at the onset of treatment. Mice were treated i.p. at days 9, 13 and 17 with either isotype control (2A3; 200 μg/mouse) or anti-PD-1 mAb (RMP1-14, 200 μg/mouse) and where indicated, SYN-115 (Batch 71236AA002) at the indicated dose or vehicle control once-daily via oral gavage on days 14 to 29. To calculate a dose of SYN-115 mouse weight was estimated to be 20 g per mouse. Therefore, 100 mg/kg=2 mg per mouse in […] which is equivalent to 10 mg/ml. To make up 40 mL, 400 milligrams of SYN-115 was weighed and added into a Falcon tube, then 1 mL of Tween 80 was added and mixed into a paste and then 39 mL of 1% Methyl Cellulose was added. The solution was vortexed and then left on a rotating mixer for at least 2 hours and maintained at 4° C. Tumor measurements were taken 2-3 times per week. Tumor sizes were determined by width * length and mice were culled when tumors reached the ethical limit of 150 mm^2.
# [2] = Example 11: plasma pharmacokinetics (toxicokinetics) of tozadenant in mice after twice daily oral administration; format: in vivo, Crl:CD1(ICR) mice; design: Cmax/D / AUC0-24/D: unit not given beside the values; details: for Cmax: read-out: Cmax
# Method: The plasma pharmacokinetics and exposure levels of tozadendant have been documented in mice after oral administration, the same route of administration as tozadenant was dosed in the oncology efficacy studies.
# The PK of tozadenant in mice was compared across a range of doses and dose frequencies. […]
# Groups of mice of the Crl:CD1(ICR) strain were dosed, as follows:
# The vehicle for the tozadenant in this mouse PK study was 1.6% (w/v) Avicel RC-591 (FMC), 0.2% (v/v) Tween 80, 0.18% (w/v) methylparaben and 0.02% (w/v) propylparaben in reverse osmosis water, pH 6.0±0.3. The 1.6% (w/v) Avicel RC-591 (FMC) was supplied by Biopolymer International, Brussels, Belgium. The 0.2% (v/v) Tween 80, 0.18% (w/v) methylparaben and 0.02% (w/v) propylparaben in reverse osmosis water, pH 6.0±0.3 was supplied by and Sigma-Aldrich Co Ltd, Poole, UK. This is the same formulation used for the mouse oncology model oral dosing.
# The test article was administered orally by gavage, as follows:
# Groups 1 to 4: Twice for one day (0 and 8 hours apart relative to initial dose)
# Group 5: Twice for one day (0 and 12 hours apart relative to initial dose)
# Blood samples for toxicokinetics (0.25 mL nominal) were taken from all toxicokinetic animals (subgroup 2), as follows:
# For animals dosed at 0, 8 or 12 hour intervals, sampling time with respect to dose was symmetrical in each animal, for example, if an animal was sampled 0.5 hours after the first dose, it was sampled 0.5 hours after the second dose. The second sample obtained from each animal was collected under terminal anaesthesia.
# Samples were taken from the orbital sinus (with the exception of Group 3 animals at the 10 hour bleed, which were taken by cardiac puncture) under isoflurane anaesthesia into K2EDTA. Samples were gently inverted to ensure mixing with anticoagulant, placed on a blood roller for at least one minute and then placed in a Kryorack until centrifugation.
# Centrifugation was carried out at approximately 4-8° C. within one hour of collection. The resultant plasma from all samples was separated, transferred to uniquely labelled clear polypropylene tubes and frozen immediately at approximately <−10 to −30° C. Samples were analyzed at Covance.
# Tozadenant was quantitated using protein precipitation followed by liquid chromatography mass spectrometry technique for quantification. This bioanalytical method was previously established and validated for tozadenant in mouse plasma.
# [3] = Group 1, Male, 100 mg/kg/day (50 mg/kg/dose), oral, dosing at 0, 8 hr
# [4] = Group 2, Male, 300 mg/kg/day (150 mg/kg/dose), oral, dosing at 0, 8 hr
# [5] = Group 3, Male, 1000 mg/kg/day (500 mg/kg/dose), oral, dosing at 0, 8 hr
# [6] = Group 4, 2000 mg/kg/day, dosing at 0, 8 hr
# [7] = Group 4, Female, 2000 mg/kg/day (1000 mg/kg/dose), oral, dosing at 0, 8 hr
# [8] = Group 4, Male, 2000 mg/kg/day (1000 mg/kg/dose), oral, dosing at 0, 8 hr
# [9] = Group 5, 2000 mg/kg/day, dosing at 0, 12 hr
# [10] = Group 5, Female, 2000 mg/kg/day (1000 mg/kg/dose), oral, dosing at 0, 12 hr
# [11] = Group 5, Male, 2000 mg/kg/day (1000 mg/kg/dose), oral, dosing at 0, 12 hr
smiles,measurement,setting,value
"COc1ccc(N2CCOCC2)c2sc(NC(=O)N3CCC(C)(O)CC3)nc12 [SYN-115, 4-hydroxy-4-methyl-piperidine-1-carboxylic acid (4-methoxy-7-morpholin-4-yl-benzothiazol-2-yl)-amide]",Raw Tumor Measurements,"[1]; 2A3 (200 μg/mouse)+SYN-115 (30 mg/kg), Day 0",12.71 and 14.85 and 16.32 and 18.92 and 20.16 and 22.36
same,Raw Tumor Measurements,"[1]; 2A3 (200 μg/mouse)+SYN-115 (30 mg/kg), Day 4",37.62 and 42.12 and 40.7 and 53.2 and 38.4 and 52.56
same,Raw Tumor Measurements,"[1]; 2A3 (200 μg/mouse)+SYN-115 (30 mg/kg), Day 13",146.41 and 150.7 and 93.93 and 186.83
same,Raw Tumor Measurements,"[1]; 2A3 (200 μg/mouse)+SYN-115 (30 mg/kg), Day 15",188.94 and 100.8
same,Raw Tumor Measurements,"[1]; 2A3 (200 μg/mouse)+SYN-115 (30 mg/kg), Day 19",186.12
same,Raw Tumor Measurements,"[1]; 2A3 (200 μg/mouse)+SYN-115 (100 mg/kg), Day 0",12.76 and 14.8 and 17 and 18.9 and 20.5 and 21.12
same,Raw Tumor Measurements,"[1]; 2A3 (200 μg/mouse)+SYN-115 (100 mg/kg), Day 4",44.73 and 41.31 and 42.7 and 41.76 and 49.64 and 25.85
same,Raw Tumor Measurements,"[1]; 2A3 (200 μg/mouse)+SYN-115 (100 mg/kg), Day 6",53.4 and 59.78 and 73.04 and 58.32 and 71.76 and 42.92
same,Raw Tumor Measurements,"[1]; 2A3 (200 μg/mouse)+SYN-115 (100 mg/kg), Day 8",66.75 and 90.2 and 89 and 87.4 and 94.08 and 51.84
same,Raw Tumor Measurements,"[1]; 2A3 (200 μg/mouse)+SYN-115 (100 mg/kg), Day 13",187.53 and 175.56 and 213.12 and 203.68 and 164.56 and 110.4
same,Raw Tumor Measurements,"[1]; 2A3 (200 μg/mouse)+SYN-115 (100 mg/kg), Day 15",151.42
same,Raw Tumor Measurements,"[1]; Anti-PD-1 (200 ug)+SYN-115 (30 mg/kg), Day 22",108 and 136.64 and 120.64
same,Raw Tumor Measurements,"[1]; Anti-PD-1 (200 ug)+SYN-115 (30 mg/kg), Day 25",160.95 and 151.2 and 159.6
same,AUC0-24/D,[2]; [3],35.2
same,Cmax/D,[2]; [3],7.64
same,AUC0-24/D,[2]; [4],33.0
same,Cmax/D,[2]; [4],5.73
same,AUC0-24/D,[2]; [5],29.9
same,Cmax/D,[2]; [5],3.61
same,Female:Male Ratio AUC0-24,[2]; [6],2.70
same,Female:Male Ratio Cmax,[2]; [6],2.38
same,AUC0-24/D,[2]; [7],58.0
same,Cmax/D,[2]; [7],6.05
same,AUC0-24/D,[2]; [8],21.5
same,Cmax/D,[2]; [8],2.54
same,Female:Male Ratio AUC0-24,[2]; [9],2.02
same,Female:Male Ratio Cmax,[2]; [9],1.28
same,AUC0-24/D,[2]; [10],31.4
same,Cmax/D,[2]; [10],4.12
same,AUC0-24/D,[2]; [11],15.6
same,Cmax/D,[2]; [11],3.22
same,AUC(0-t),"[2]; female, Crl:CD1(ICR), mouse, plasma, po, 2000 mg/kg/day, Group 4, Female, 2000 mg/kg/day (1000 mg/kg/dose), oral, dosing at 0, 8 hr, read-out: AUC0-8",35400 ng·h/mL
same,AUC(0-t),"[2]; female, Crl:CD1(ICR), mouse, plasma, po, 2000 mg/kg/day, Group 4, Female, 2000 mg/kg/day (1000 mg/kg/dose), oral, dosing at 0, 8 hr, read-out: AUC0-24",116000 ng·h/mL
same,AUC,"[2]; female, Crl:CD1(ICR), mouse, plasma, po, 2000 mg/kg/day, Group 4, Female, 2000 mg/kg/day (1000 mg/kg/dose), oral, dosing at 0, 8 hr, read-out: AUC8-24",80600 ng·h/mL
same,Cmax,"[2]; female, Crl:CD1(ICR), mouse, plasma, po, 2000 mg/kg/day, Group 4, Female, 2000 mg/kg/day (1000 mg/kg/dose), oral, dosing at 0, 8 hr",12100 ng/mL
same,Tmax,"[2]; female, Crl:CD1(ICR), mouse, plasma, po, 2000 mg/kg/day, Group 4, Female, 2000 mg/kg/day (1000 mg/kg/dose), oral, dosing at 0, 8 hr, read-out: Tmax",14 h
same,AUC(0-t),"[2]; female, Crl:CD1(ICR), mouse, plasma, po, 2000 mg/kg/day, Group 5, Female, 2000 mg/kg/day (1000 mg/kg/dose), oral, dosing at 0, 12 hr, read-out: AUC0-12",35500 ng·h/mL
same,AUC(0-t),"[2]; female, Crl:CD1(ICR), mouse, plasma, po, 2000 mg/kg/day, Group 5, Female, 2000 mg/kg/day (1000 mg/kg/dose), oral, dosing at 0, 12 hr, read-out: AUC0-24",62700 ng·h/mL
same,AUC,"[2]; female, Crl:CD1(ICR), mouse, plasma, po, 2000 mg/kg/day, Group 5, Female, 2000 mg/kg/day (1000 mg/kg/dose), oral, dosing at 0, 12 hr, read-out: AUC12-24",27200 ng·h/mL
same,Cmax,"[2]; female, Crl:CD1(ICR), mouse, plasma, po, 2000 mg/kg/day, Group 5, Female, 2000 mg/kg/day (1000 mg/kg/dose), oral, dosing at 0, 12 hr",8240 ng/mL

# — patent US20220088024A1, “METHODS FOR TREATING CANCER USING TOZADENANT” (Biotie Therapies, Inc., priority 2018, published 2022)
